The values that follow come from patent publication US8470874B2, “Pharmaceutical compositions comprising cannabichromene type compounds” (GW Pharma Limited, priority 2003, dated 2013).

The subject of one data set is C57BL6BYJ mice. As to the kind of experiment: tail suspension test. It counts as in vivo. The conditions noted are these: male mice. The procedure:
The experiment used 112 C57BL6BYJ mice (Jackson Laboratories, Bar Harbor, Me.) which were housed in same sex groups (n=3-5) and maintained on a reversed 12 h light-dark cycle, with all testing being completed during the first 4 h of the dark phase cycle. Food and water were provided ad libitum except during behavioural testing. The subjects were six weeks old at the time of testing and consisted of groups with equal numbers of males (18-26 g) and females (15-21 g).
The substantially pure CBC extract (54.0 mg/ml in ethanol) was diluted in Tween 80 and subsequently diluted further to the correct dose with PBS (pH 7.4). The final concentration of Tween 80 was 5% for all preparations.
Imipramine (30 mg/kg) was used as an antidepressant control and diluted as per the CBC extract. Test article at doses of 0, 5, 10, 20, 40, 80 mg/kg/0.01 ml/g bodyweight were administered i.p. under sodium light to minimise exposure to light.
For the tail suspension test, a sound-attenuated chamber (Lafayette Instruments, Lafayette, Ind.) with a titanium bar (1 cm diameter×24 cn long) mounted 15 cm from the floor of the test chamber was used. An opto-electronic sensor was mounted in a 4 cm×4 cm white plastic column and positioned 5 cm from the mounting bar. An infra-red light transmitted from the light emitting diode onto the animal. If the animal moved, the amount of light collected by the phototransistor would increase or decrease depending on the size and duration of the movement. The opto-electric sensor was connected to an interface designed to condition and amplify the signal (range 0-10 volts) and then send the amplified signal to an A/D interface board (Powerlab 4/s: AD Instruments, Mountain View, Calif.) connected to a Macintosh G4 microcomputer. The duration of the experiment and the recording of raw behavioural responses was controlled and saved to a data file using Chart 3.6 data collection software (AD Instruments, Mountain View, Calif.).
On the day of testing, the mice were weighed and randomly assigned to groups with the restriction that equal numbers of males and females be represented in each group. Test article or control drug was injected intraperitoneally. Thirty minutes later each mouse was tested on the tail-suspension test for six minutes.
The mouse was suspended from a bar by the tail using adhesive tape so that the tip of their nose was 2 cm from the floor of the tail suspension chamber. The photodiode was then placed 5 cm away from the subject and aimed at the middle of the subject's ventral surface. Each subject was tested for six minutes. The total number of movements and total amount of time spent immobile were recorded. […] A period of immobility was counted only if no movements above 350 mV were recorded for at least 1000 ms. The total amount of time spent immobile was calculated by summing the duration of the individual immobility periods. These criteria were selected to be similar to those used in previous tail suspension studies (e.g., Steru et al., 1985).
Antidepressant effects are indicated by an increase in the frequency of struggling activity during the test. In addition the degree or amplitude of struggling is thought to be a predictor of antidepressant activity.
The results shown in FIGS. 2 to 7 are from the male mice only as the data obtained from the female mice were confounded by the oestrous cycle.

For a further data set, the system named is dogs. The note with it: cited from earlier work.
In the next data set the test system is monkeys or humans. The conditions noted are these: cited from earlier work.
The next data set relates to rat paw edema. The note with it: in vivo, equivalent doses; cited from earlier work.
The subject of data set [1] is rats. The conditions noted are these: cited from earlier work.
A further data set has as its system mice. The conditions noted are these: cited from earlier work.
The test system of a further data set is prostaglandin synthesis. The note with it: in vitro; cited from earlier work.
The test system of a further data set is erythrocyte membrane. The note with it: in vitro, equivalent doses; cited from earlier work.
For data set [2], the system named is rats. The conditions noted are these: co-administration of CBC with THC; cited from earlier work.

SMILES strings stand for the structures. Where two headings read alike, the source gives them in different places.

Regarding `CN(C)CCCN1c2ccccc2CCc2ccccc21` [imipramine, reference compound], the “activity mean (all activity)” value in the data set on C57BL6BYJ mice (imipramine 30 mg/kg/0.01 ml/g bodyweight i.p., 30 min after dosing, 6 min test) is reported as 733.5.
As for `CCCCCc1cc(O)c2c(c1)OC(C)(CCC=C(C)C)C=C2` (centres unmarked) [CBC, cannabichromene], the sedation entry in the data set on dogs is reported as “causes sedation”. Moreover, the cannabimimetic activity entry with monkeys or humans was “has not been shown to cause any cannabimimetic activity”. Also, the “anti-inflammatory effect compared with phenylbutazone” value with rat paw edema and with erythrocyte membrane was “as effective as phenylbutazone (PBZ)” in each case. Moreover, the muscular coordination result in the data set on rats [1] is “decreased muscular coordination”. Further, the LD50 – broadly, the dose at which mortality reaches 50% – in the data set on mice (single intraperitoneal dose) is given as 113.4 mg/kg. In addition, the “all activity compared with imipramine” value in the data set on C57BL6BYJ mice (CBC 10 mg/kg/0.01 ml/g bodyweight i.p. vs imipramine 30 mg/kg) is “comparable to those observed in the mice administered imipramine”. For the same molecule, the “degree of struggling (percentage very large vigorous movements), mean” value in the data set on C57BL6BYJ mice (CBC 20 mg/kg/0.01 ml/g bodyweight i.p.) is on record as 31.4%; with C57BL6BYJ mice (CBC 80 mg/kg/0.01 ml/g bodyweight i.p.), 30.2%. The “number of large vigorous movements compared with imipramine” value in the data set with C57BL6BYJ mice (CBC 10 and 40 mg/kg/0.01 ml/g bodyweight i.p. vs imipramine 30 mg/kg) is given as “comparable number of large vigorous movements”; in the data set with C57BL6BYJ mice (CBC 20 or 80 mg/kg/0.01 ml/g bodyweight i.p. vs imipramine 30 mg/kg), “greater number of large vigorous movements in the animals than imipramine”. Besides, the “most efficient dose for antidepressant action” value with C57BL6BYJ mice (i.p., from Fisher's PLSD of struggling) was 20 mg/kg/0.01 ml/g bodyweight. Moreover, the “inhibition of prostaglandin synthesis” value in the data set with prostaglandin synthesis is reported as “less potently than THC or CBD”. The “effect on THC changes in heart rate” value in the data set with rats [2] is on record as “potentiates the THC changes in heart rate”. Moreover, the “effect on THC's hypotensive effects” value in the data set with rats [2] is given as “does not potentiate THC's hypotensive effects”.
Take `CCCCCc1cc(O)cc(O)c1` [Olivetol]: the “inhibition of prostaglandin synthesis” value in the data set with prostaglandin synthesis is recorded as “high activity”.
Turning to `CCCCCc1cc(O)c2c(c1)OC1(C)CCC3C1C2C3(C)C` (centres unmarked) [Cannabicyclol], the “inhibition of prostaglandin synthesis” value in the data set with prostaglandin synthesis is recorded as “almost no inhibitory activity”.
Turning to `CCCCCc1cc(O)c2c(c1)OC(C)(C)[C@@H]1CCC(C)=C[C@@H]21` [Δ9-THC], the median lethal dose (LD50) in the data set with mice (single intraperitoneal dose) is on record as 276.3 mg/kg; in the data set on mice (Δ9-THC with 25 mg/kg CBC given concurrently), 152.0 mg/kg.
